Laboratory results as given in ChEMBL document CHEMBL6092154, “Design, synthesis, and evaluation of a novel TRAIL-activated HDAC6 inhibitor for the treatment of pulmonary fibrosis” (Bioorg Med Chem, 2024).

Columns and labels:
[1] = molecular target: Histone deacetylase 1 (Homo sapiens) (UniProt Q13547); experiment: Inhibition of HDAC1 (unknown origin) at 1 uM incubated for 30 mins by fluorometric analysis
Histone deacetylase 2 = Histone deacetylase 2 (Homo sapiens, UniProt Q92769); experiment: Inhibition of HDAC2 (unknown origin) at 1 uM incubated for 30 mins by fluorometric analysis
Histone deacetylase 2, sequence (Q92769 whole entry): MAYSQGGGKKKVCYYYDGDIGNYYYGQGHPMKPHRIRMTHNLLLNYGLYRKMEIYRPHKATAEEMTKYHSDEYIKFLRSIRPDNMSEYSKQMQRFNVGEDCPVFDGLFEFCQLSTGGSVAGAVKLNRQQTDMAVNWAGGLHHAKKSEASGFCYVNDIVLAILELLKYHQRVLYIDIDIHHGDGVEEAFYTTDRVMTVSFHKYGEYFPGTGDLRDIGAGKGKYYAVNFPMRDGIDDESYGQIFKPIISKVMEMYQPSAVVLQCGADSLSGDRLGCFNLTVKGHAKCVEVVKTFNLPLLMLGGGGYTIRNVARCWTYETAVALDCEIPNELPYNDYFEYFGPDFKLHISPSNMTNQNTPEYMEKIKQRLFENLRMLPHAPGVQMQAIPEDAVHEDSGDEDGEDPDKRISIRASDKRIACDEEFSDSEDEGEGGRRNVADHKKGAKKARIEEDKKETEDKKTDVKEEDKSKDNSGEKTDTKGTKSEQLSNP

Histone deacetylase 3 = Histone deacetylase 3 (Homo sapiens, UniProt O15379); experiment: Inhibition of HDAC3 (unknown origin) at 1 uM incubated for 30 mins by fluorometric analysis
Histone deacetylase 3, sequence (O15379 whole entry): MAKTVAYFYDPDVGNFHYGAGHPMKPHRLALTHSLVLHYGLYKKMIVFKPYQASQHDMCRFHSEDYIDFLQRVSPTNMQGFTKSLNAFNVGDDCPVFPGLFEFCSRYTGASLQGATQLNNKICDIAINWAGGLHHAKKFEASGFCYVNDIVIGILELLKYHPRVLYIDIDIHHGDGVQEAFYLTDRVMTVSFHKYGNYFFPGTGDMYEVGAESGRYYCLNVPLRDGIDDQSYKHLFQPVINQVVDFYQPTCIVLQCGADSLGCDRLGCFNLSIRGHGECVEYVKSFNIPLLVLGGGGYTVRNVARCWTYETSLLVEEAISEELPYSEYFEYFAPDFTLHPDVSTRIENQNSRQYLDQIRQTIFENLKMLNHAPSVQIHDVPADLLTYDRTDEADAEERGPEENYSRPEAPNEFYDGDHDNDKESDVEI

[2] = molecular target: T1, Histone deacetylase 8 (Homo sapiens) (UniProt Q9BY41); experiment: Inhibition of HDAC8 (unknown origin) at 1 uM incubated for 30 mins by fluorometric analysis
T1 sequence (whole entry): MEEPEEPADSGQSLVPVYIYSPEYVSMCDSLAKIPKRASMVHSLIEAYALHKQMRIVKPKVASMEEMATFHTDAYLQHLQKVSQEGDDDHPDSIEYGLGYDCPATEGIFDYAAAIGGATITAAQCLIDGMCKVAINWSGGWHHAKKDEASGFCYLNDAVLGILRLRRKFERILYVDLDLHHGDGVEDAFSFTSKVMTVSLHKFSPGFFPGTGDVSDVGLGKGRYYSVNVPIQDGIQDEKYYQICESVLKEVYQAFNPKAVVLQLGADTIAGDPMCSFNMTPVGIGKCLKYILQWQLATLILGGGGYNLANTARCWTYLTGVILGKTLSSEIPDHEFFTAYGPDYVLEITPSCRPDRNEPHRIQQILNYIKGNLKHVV

[3] = molecular target: T2, Protein deacetylase HDAC6 (Homo sapiens) (UniProt Q9UBN7); experiment: Inhibition of HDAC6 (unknown origin) at 1 uM incubated for 30 mins by fluorometric analysis
T2 sequence (whole entry): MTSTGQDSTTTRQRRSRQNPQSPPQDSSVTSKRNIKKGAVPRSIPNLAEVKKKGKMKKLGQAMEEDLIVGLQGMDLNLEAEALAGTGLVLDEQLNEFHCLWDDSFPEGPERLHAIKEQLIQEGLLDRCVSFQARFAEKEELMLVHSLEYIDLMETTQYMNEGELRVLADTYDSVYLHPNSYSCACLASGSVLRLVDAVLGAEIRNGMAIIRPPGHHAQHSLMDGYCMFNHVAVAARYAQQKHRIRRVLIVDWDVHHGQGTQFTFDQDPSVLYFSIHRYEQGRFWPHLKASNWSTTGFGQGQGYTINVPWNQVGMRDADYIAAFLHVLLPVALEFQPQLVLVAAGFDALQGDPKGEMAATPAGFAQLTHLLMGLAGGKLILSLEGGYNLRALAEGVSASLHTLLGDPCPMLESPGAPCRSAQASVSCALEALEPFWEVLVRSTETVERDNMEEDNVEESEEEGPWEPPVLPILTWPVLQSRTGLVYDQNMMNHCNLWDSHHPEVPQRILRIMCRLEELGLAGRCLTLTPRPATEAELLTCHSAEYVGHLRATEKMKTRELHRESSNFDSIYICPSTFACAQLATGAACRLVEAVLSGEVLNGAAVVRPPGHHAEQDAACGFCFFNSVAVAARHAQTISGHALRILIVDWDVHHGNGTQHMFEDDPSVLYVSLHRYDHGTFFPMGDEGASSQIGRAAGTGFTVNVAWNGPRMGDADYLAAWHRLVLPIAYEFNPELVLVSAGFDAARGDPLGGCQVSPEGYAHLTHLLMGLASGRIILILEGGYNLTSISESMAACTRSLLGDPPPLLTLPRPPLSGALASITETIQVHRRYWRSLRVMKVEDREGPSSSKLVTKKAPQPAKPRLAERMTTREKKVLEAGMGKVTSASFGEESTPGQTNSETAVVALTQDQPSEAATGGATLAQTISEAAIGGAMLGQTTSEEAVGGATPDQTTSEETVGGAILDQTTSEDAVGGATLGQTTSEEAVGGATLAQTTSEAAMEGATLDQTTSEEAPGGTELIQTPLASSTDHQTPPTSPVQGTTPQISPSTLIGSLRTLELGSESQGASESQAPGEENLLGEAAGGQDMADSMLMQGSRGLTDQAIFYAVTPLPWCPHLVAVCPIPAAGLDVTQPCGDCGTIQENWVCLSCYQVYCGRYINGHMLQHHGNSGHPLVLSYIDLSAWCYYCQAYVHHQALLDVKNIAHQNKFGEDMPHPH

[4] = molecular target: T3, Protein deacetylase HDAC6 (Homo sapiens, UniProt Q9UBN7); experiment: Inhibition of HDAC6 (unknown origin) incubated for 30 mins by fluorometric analysis
T3 sequence (Q9UBN7 whole entry): T2 sequence (whole entry)

RPMI-8226 = experiment: Antiproliferative activity against human RPMI-8226 cells assessed as inhibition of cell growth incubated for 24 to 48 hrs by CCK8 assay; type: functional, cell-based
NIH3T3 = experiment: Antiproliferative activity against mouse NIH/3T3 cells assessed as inhibition of cell growth incubated for 24 to 48 hrs by CCK8 assay; type: functional, cell-based
Fibroblast = experiment: Antiproliferative activity against human primary fibroblasts assessed as inhibition of cell growth incubated for 24 to 48 hrs by CCK8 assay; type: functional, cell-based

Histone deacetylase 1 (Homo sapiens), sequence (Q13547 whole entry): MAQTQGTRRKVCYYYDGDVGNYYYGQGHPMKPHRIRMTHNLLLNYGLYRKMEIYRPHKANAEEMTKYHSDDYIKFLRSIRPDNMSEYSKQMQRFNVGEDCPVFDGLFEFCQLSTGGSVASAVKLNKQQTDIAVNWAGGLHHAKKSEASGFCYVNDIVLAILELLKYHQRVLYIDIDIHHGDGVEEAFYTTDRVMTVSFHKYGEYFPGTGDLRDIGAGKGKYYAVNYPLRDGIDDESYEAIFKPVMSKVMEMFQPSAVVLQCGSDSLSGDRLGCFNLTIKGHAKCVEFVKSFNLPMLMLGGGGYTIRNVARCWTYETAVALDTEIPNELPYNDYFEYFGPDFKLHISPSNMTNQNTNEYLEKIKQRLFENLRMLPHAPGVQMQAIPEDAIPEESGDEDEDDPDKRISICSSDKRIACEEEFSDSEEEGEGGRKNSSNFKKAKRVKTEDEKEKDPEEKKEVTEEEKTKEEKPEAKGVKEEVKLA

Compound	inhibition [1]	inhibition (Histone deacetylase 2)	inhibition (Histone deacetylase 3)	inhibition [2]	inhibition [3]	IC50 [4]	IC50 (RPMI-8226)	IC50 (NIH3T3)	IC50 (Fibroblast)
O=C(NO)c1ccc(CN2C(=O)C3=C(CCN(Cc4cccc(C(F)(F)F)c4Cl)C3)N3CCN=C23)cc1	18.3%	60.8%	52.7%	31%	94.1%	60.1 nM	49400 nM	6710 nM	111000 nM
Cc1ccccc1CN1CCC2=C(C1)C(=O)N(Cc1ccc(C(=O)NO)cc1)C1=NCCN12	32.4%	60.5%	51.2%	69.8%	94.7%	48 nM	10700 nM	5900 nM	59200 nM
O=C(NO)c1ccc(CN2C(=O)C3=C(CCN(Cc4cccnc4)C3)N3CCN=C23)cc1	9.3%	46.3%	36.2%	66.4%	95.1%	137 nM	2880 nM	8400 nM	4580 nM
O=C(NO)c1ccc(CN2C(=O)C3=C(CCN(Cc4ccc(Cl)c(C(F)(F)F)c4)C3)N3CCN=C23)cc1	27.2%	62.7%	43.8%	48.2%	96.2%	36.8 nM	1080 nM	9880 nM	45300 nM
Cc1ccc(CN2CCC3=C(C2)C(=O)N(Cc2ccc(C(=O)NO)cc2)C2=NCCN23)cc1	31.8%	58.4%	53.1%	63.6%	91.3%	50.9 nM	13300 nM	1630 nM	136000 nM
Cc1cccc(CN2CCC3=C(C2)C(=O)N(Cc2ccc(C(=O)NO)cc2)C2=NCCN23)c1	44.7%	61.7%	50.6%	74.9%	93.8%	54.8 nM	1060 nM	90 nM	50700 nM
O=C(NO)c1ccc(CN2C(=O)C3=C(CCN(Cc4cccc(F)c4)C3)N3CCN=C23)cc1	47.9%	61.9%	56.4%	75%	97.1%	64.4 nM	1580 nM	6510 nM	26700 nM
O=C(CCCCCCNC(=O)c1cnc(N(c2ccccc2)c2ccccc2)nc1)NO [RICOLINOSTAT]	–	–	–	–	98.5%	–	850 nM	3530 nM	35100 nM
O=C(NO)c1ccc(CN2C(=O)C3=C(CCN(Cc4cccc(Br)c4)C3)N3CCN=C23)cc1	36.4%	63.9%	56.6%	76%	93.6%	31.5 nM	1860 nM	100 nM	47400 nM
COc1cccc(CN2CCC3=C(C2)C(=O)N(Cc2ccc(C(=O)NO)cc2)C2=NCCN23)c1	59.3%	57.6%	52.3%	72.2%	95.4%	104 nM	100 nM	11400 nM	55200 nM
O=C(NO)c1ccc(CN2C(=O)C3=C(CCN(Cc4ccccc4)C3)N3CCN=C23)cc1	68.3%	56.8%	51.9%	72.8%	97.2%	65.4 nM	620 nM	1000 nM	30600 nM
